The source of these data is ChEMBL document CHEMBL3297697, “Property- and structure-guided discovery of a tetrahydroindazole series of interleukin-2 inducible T-cell kinase inhibitors” (J Med Chem, 2014).

pIC50, pKi: −log10 of the molar value. ≈ marks a conversion by molar mass, not a printed value.

Data set [1] is described as follows: Plasma protein binding in human. The settings on record: read-out: PPB (converted). Format: ADME, cell-free.
The target of the next data set is T1, Aurora kinase A (Homo sapiens, UniProt O14965).
T1 sequence (O14965 whole entry): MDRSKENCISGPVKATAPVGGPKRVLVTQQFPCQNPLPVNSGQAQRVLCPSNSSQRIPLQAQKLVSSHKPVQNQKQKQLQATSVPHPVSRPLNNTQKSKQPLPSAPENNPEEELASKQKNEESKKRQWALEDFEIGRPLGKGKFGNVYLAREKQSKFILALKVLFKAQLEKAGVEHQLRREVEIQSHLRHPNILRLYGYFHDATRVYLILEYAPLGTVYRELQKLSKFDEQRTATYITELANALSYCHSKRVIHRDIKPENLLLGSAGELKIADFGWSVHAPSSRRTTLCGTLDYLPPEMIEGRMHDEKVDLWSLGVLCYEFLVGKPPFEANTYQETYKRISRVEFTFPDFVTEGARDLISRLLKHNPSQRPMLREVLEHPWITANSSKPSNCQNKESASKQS

Data set [2] can be described thus: physchem. The settings on record: PBS buffer, pH 7.4, Kinetic_solubility.
The target of data set [3] is T2, Tyrosine-protein kinase ITK/TSK (Homo sapiens, UniProt Q08881).
T2 sequence (Q08881 whole entry): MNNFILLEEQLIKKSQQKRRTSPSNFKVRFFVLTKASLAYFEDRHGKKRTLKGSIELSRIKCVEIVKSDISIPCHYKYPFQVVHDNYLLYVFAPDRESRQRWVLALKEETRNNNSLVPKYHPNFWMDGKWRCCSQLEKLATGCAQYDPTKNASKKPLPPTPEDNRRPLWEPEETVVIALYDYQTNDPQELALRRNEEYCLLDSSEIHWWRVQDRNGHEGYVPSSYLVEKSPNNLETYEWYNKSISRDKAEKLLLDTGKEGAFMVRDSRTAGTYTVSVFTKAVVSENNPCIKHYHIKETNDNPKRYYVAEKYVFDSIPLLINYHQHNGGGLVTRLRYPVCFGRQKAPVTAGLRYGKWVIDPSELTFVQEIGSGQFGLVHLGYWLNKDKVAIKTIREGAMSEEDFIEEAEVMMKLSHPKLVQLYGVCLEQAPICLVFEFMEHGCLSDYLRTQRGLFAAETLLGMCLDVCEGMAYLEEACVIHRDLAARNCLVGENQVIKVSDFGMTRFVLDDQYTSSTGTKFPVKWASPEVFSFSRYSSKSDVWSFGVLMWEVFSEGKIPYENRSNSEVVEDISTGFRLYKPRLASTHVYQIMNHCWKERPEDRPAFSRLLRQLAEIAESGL

Data set [4] has as its target T2, Tyrosine-protein kinase ITK/TSK. This is another data set of the same source.
Data set [5] is described as follows: physchem. The settings on record: 1-octanol/phosphate buffer, pH 7.4, logD.
The nature of data set [6]: Apparent permeability across MDCK cells. Format: ADME, cell-based, Canis lupus familiaris. Conditions: dog.
The next data set is filed under the species Homo sapiens. Description: Selectivity ratio of Ki for human His-tagged full length AURKAto Ki for GST-tagged full length ITK (unknown origin).
The conditions of data set [7]: octanol/water, pH 7.4, 20 min, 10000 µM.
For data set [8] the following is noted: buffer, pH 7.4, 24 h, 10000 µM.

As for `CN(C)CC[C@@H](c1ccccc1)n1cc(NC(=O)c2n[nH]c3cc(-c4cn[nH]c4)ccc23)cn1`, the fraction unbound in data set [1] is 0.03. Also, at Aurora kinase A, the pKi was 7.82. Further, the kinetic solubility at 24 h, 10000 µM in “physchem [2]” worked out at 94 µM (≈ 42.7 µg/mL).

For the compound `N#Cc1cccc(Cn2cc(NC(=O)c3n[nH]c4c3CC(c3cn[nH]c3)CC4)cn2)c1` (centres undefined) [listing 1 of 2 here], the results for the pKi (in [3]; on Aurora kinase A) were 8.03 and 6.66, respectively. In [4], this compound had a pIC50 of 5.66. This compound also registered a logD at 20 min, 10000 µM in the data set “physchem [5]” of 2.4.

On to `CC1(C)CCc2c(C(=O)Nc3cnn(Cc4ccccc4)c3)n[nH]c2C1`, for which the Papp in data set [6] turned out to be 7.6 ×10⁻⁶ cm/s. The same compound had a negative logarithm of the Ki (pKi) at Aurora kinase A of 6.32. The solubility (kinetic) at 24 h, 10000 µM in the data set “physchem [2]” is less than 1 µM. For the same compound, in the data set “physchem [5]”, the logD at 20 min, 10000 µM is 4.3.

As for `N#Cc1cccc(Cn2cc(NC(=O)c3n[nH]c4c3CC(c3cn[nH]c3)CC4)cn2)c1` (racemic) [listing 1 of 2 here], the Ratio Ki in the data set filed under Homo sapiens was determined as 25.

At Aurora kinase A, `O=C(Nc1cnn(Cc2ccccc2)c1)c1n[nH]c2c1CCC(F)(F)C2` gave a pKi of 6.02. Moreover, the kinetic solubility at 24 h, 10000 µM in “physchem [2]” is less than 1 µM. Moreover, the pH-dependent lipophilicity (logD) at 20 min, 10000 µM in “physchem [5]” turned out to be 3.8.

In the case of `CC1(CO)CCc2c(C(=O)Nc3cnn(Cc4ccccc4)c3)n[nH]c2C1` (racemic), the pKi at Aurora kinase A is 5.64. The compound also registered a solubility (kinetic) at 24 h, 10000 µM in the data set “physchem [2]” of 77 µM (≈ 28.1 µg/mL). For the same compound, in the data set “physchem [5]”, the logD at 20 min, 10000 µM was 2.6.

`N#Cc1cccc(Cn2cc(NC(=O)c3n[nH]c4ccccc34)cn2)c1`: in the data set filed under Homo sapiens, the Ratio Ki came to 20. Also, the pKi in data set [3] is 7.37; on Aurora kinase A it was 6.06. The same compound gave a kinetic solubility at 24 h, 10000 µM in the data set “physchem [2]” of 5.8 µM (≈ 1.99 µg/mL). The same compound came in with a logD at 20 min, 10000 µM in the data set “physchem [5]” of 3.

The compound `CC1CCc2c(C(=O)Nc3cnn(Cc4ccccc4)c3)n[nH]c2C1` (centres undefined) showed a pKi on Aurora kinase A of 6.28.

On to `N#Cc1cccc(Cn2cc(NC(=O)c3n[nH]c4c3CCCC4)cn2)c1`, for which the Ratio Ki in the data set listed under Homo sapiens turned out to be 26. Besides, the pKi on Aurora kinase A is 6.11. In “physchem [2]”, this compound returned a kinetic solubility at 24 h, 10000 µM of 14 µM (≈ 4.85 µg/mL). This compound also displayed a logD at 20 min, 10000 µM in “physchem [5]” of 2.6.

`CN(C)CC[C@@H](c1cccc(Cl)c1)n1cc(NC(=O)c2n[nH]c3c2CCC(C)(C)C3)cn1` gave a pKi at Aurora kinase A of 6.54. In addition, in the data set “physchem [2]”, the kinetic solubility at 24 h, 10000 µM is 25 µM (≈ 11.4 µg/mL). The logD at 20 min, 10000 µM in the data set “physchem [5]” was found to be 2.7.

Take `O=C(Nc1cnn(Cc2ccccc2)c1)c1n[nH]c2c1CCC1(CC1)C2`: the pKi on Aurora kinase A was 6.74. This compound returned a kinetic solubility at 24 h, 10000 µM in the data set “physchem [2]” of less than 1 µM. Besides, in the data set “physchem [5]”, the logD at 20 min, 10000 µM turned out to be 3.9.

As to `N#Cc1cccc(Cn2cc(NC(=O)c3n[nH]c4c3CC(c3cn[nH]c3)CC4)cn2)c1` (racemic) [listing 2 of 2 here], the pKi in [3] was 8.08; on Aurora kinase A it was 6.68. Besides, the pIC50 in data set [4] was 5.77. This compound displayed a logD in data set [7] of 2.5. Also, the kinetic solubility at 24 h, 10000 µM in the data set “physchem [2]” was less than 1 µM.

At Aurora kinase A, `O=C(Nc1cnn(Cc2ccccc2)c1)c1n[nH]c2c1CC1CC1C2` (racemic) gave a pKi of 5.70. In data set [7], this compound displayed a logD of 2.5. Further, the solubility (kinetic) at 24 h, 10000 µM in “physchem [2]” was 13 µM (≈ 4.33 µg/mL).

On Aurora kinase A, `O=C(Nc1cnn(Cc2ccccc2)c1)c1n[nH]c2c1CCC1(COC1)C2` had a pKi of 5.54. Besides, the solubility (kinetic) at 24 h, 10000 µM in “physchem [2]” was found to be 78 µM (≈ 28.3 µg/mL). The compound further gave a logD at 20 min, 10000 µM in the data set “physchem [5]” of 2.4.

`O=C(Nc1cnn(Cc2ccccc2)c1)c1n[nH]c2c1CC1CC1C2` (centres undefined) showed a pKi on Aurora kinase A of 6.06. This compound registered a Kinetic_solubility in data set [8] of 18 µM. The same compound registered a logD at 20 min, 10000 µM in the data set “physchem [5]” of 2.

`O=C(Nc1cnn(Cc2ccccc2)c1)c1n[nH]c2c1CCC1(CCOC1)C2` (centres undefined) came in with a Kinetic_solubility in data set [8] of 60 µM.

In the case of `Cc1cccc([C@H](CCN(C)C)n2cc(NC(=O)c3n[nH]c4c3CCC(C)(C)C4)cn2)c1`, the Papp in data set [6] came to 4.3 ×10⁻⁶ cm/s. The compound also showed a pKi on Aurora kinase A of 6.30. In “physchem [2]”, this compound gave a solubility (kinetic) at 24 h, 10000 µM of 72 µM (≈ 31.3 µg/mL). In the data set “physchem [5]”, this compound came in with a logD at 20 min, 10000 µM of 2.4.

On to `COC1(C)CCc2c(C(=O)Nc3cnn(Cc4ccccc4)c3)n[nH]c2C1` (racemic), for which the Kinetic_solubility in data set [8] amounted to 77 µM. Besides, the logD at 20 min, 10000 µM in the data set “physchem [5]” was 2.2.

As for `COC1(C)CCc2c(C(=O)Nc3cnn(Cc4ccccc4)c3)n[nH]c2C1` (centres undefined), the Kinetic_solubility in data set [8] came out at 29 µM.

On Aurora kinase A, `CC1(CO)CCc2c(C(=O)Nc3cnn(Cc4ccccc4)c3)n[nH]c2C1` (centres undefined) had a pKi of 6.70. The Kinetic_solubility in [8] amounted to 83 µM. Also, in [7], the logD is 2.7.

The compound `O=C(Nc1cnn(Cc2ccccc2)c1)c1n[nH]c2c1CCC1(CCOC1)C2` (racemic) had a pKi at Aurora kinase A of less than 5.24. The Kinetic_solubility in [8] stood at 20 µM. The compound also registered a logD at 20 min, 10000 µM in the data set “physchem [5]” of 2.2.

Turning to `CC1(C)CCc2c(C(=O)Nc3cnn([C@H](c4ccccc4)C4CCNCC4)c3)n[nH]c2C1`, the Papp in data set [6] was found to be 0.1 ×10⁻⁶ cm/s. The pKi at Aurora kinase A is 7.72. In the data set “physchem [2]”, the kinetic solubility at 24 h, 10000 µM worked out at 102 µM (≈ 44.1 µg/mL). Further, the pH-dependent lipophilicity (logD) at 20 min, 10000 µM in the data set “physchem [5]” was determined as 1.3.

For `CN(C)C[C@@H](c1ccccc1)n1cc(NC(=O)c2n[nH]c3c2CCC(C)(C)C3)cn1`, in data set [6], the Papp amounted to 8.1 ×10⁻⁶ cm/s. At Aurora kinase A, the pKi was 6.68. In the data set “physchem [2]”, this compound displayed a solubility (kinetic) at 24 h, 10000 µM of 42 µM (≈ 17.1 µg/mL). In the data set “physchem [5]”, this compound registered a logD at 20 min, 10000 µM of 2.7.

As for `N#Cc1cccc(Cn2cc(NC(=O)c3n[nH]c4c3CC(c3cn[nH]c3)CC4)cn2)c1` (centres undefined) [listing 2 of 2 here], the Ratio Ki in the data set filed under Homo sapiens was determined as 23.

Regarding `CC1(C)CCc2c(C(=O)Nc3cnn([C@@H](CCS(C)(=O)=O)c4ccccc4)c3)n[nH]c2C1`, the Ratio Ki in the data set filed under Homo sapiens is 340. For the same compound, in data set [6], the Papp turned out to be 3.2 ×10⁻⁶ cm/s. For the same compound, the pKi in [3] was 8.21; at Aurora kinase A, 5.68. Also, in [4], the pIC50 is 6.51. This compound also displayed a kinetic solubility at 24 h, 10000 µM in “physchem [2]” of 14 µM (≈ 6.38 µg/mL). The same compound had a logD at 20 min, 10000 µM in “physchem [5]” of 2.5.

In the case of `CN(C)CC[C@H](c1ccccc1)n1cc(NC(=O)c2n[nH]c3c2CCC(C)(C)C3)cn1`, in “physchem [2]”, the solubility (kinetic) at 24 h, 10000 µM came out at 49 µM (≈ 20.6 µg/mL). In “physchem [5]”, this compound registered a logD at 20 min, 10000 µM of 2.

For `CC1CCc2c(C(=O)Nc3cnn(Cc4ccccc4)c3)n[nH]c2C1` (racemic), the pKi on Aurora kinase A was 5.96. In “physchem [2]”, this compound gave a kinetic solubility at 24 h, 10000 µM of less than 1 µM. The logD at 20 min, 10000 µM in “physchem [5]” was 4.

Consider `CC1(C)CCc2[nH]nc(C(=O)Nc3cnn(Cc4ccccc4)c3)c2C1`, for which, at Aurora kinase A, the pKi is 5.77. This compound registered a kinetic solubility at 24 h, 10000 µM in “physchem [2]” of less than 1 µM. The same compound displayed a logD at 20 min, 10000 µM in the data set “physchem [5]” of 4.3.

As to `CC12Cc3[nH]nc(C(=O)Nc4cnn(Cc5ccccc5)c4)c3CC1C2` (centres undefined), the pKi at Aurora kinase A is 7.27. In addition, the Kinetic_solubility in [8] was determined as 1.6 µM.

With `N#Cc1cccc(Cn2cc(NC(=O)c3n[nH]c4cc(-c5cn[nH]c5)ccc34)cn2)c1`, the Papp in [6] was 0.1 ×10⁻⁶ cm/s. The solubility (kinetic) at 24 h, 10000 µM in the data set “physchem [2]” was less than 1 µM. Further, in “physchem [5]”, the logD at 20 min, 10000 µM is 3.4.

On to `CC12Cc3[nH]nc(C(=O)Nc4cnn(Cc5ccccc5)c4)c3CC1C2` (racemic), for which the pKi on Aurora kinase A is 6.36. Besides, in the data set “physchem [2]”, the solubility (kinetic) at 24 h, 10000 µM is 1.3 µM (≈ 0.452 µg/mL). In addition, the logD at 20 min, 10000 µM in the data set “physchem [5]” came to 3.8.
